Measurements taken from paper PMC5997768 (2018).

System: rats with CCI
Settings: rat, in vivo, iv

C=CC[N+]1(C)CC[C@]23c4c5ccc(O)c4O[C@H]2C(=O)CC[C@@]3(O)[C@H]1C5 (some centres unmarked) [NLXM, naloxone methiodide]
Effect on FF3-induced analgesia (PPT) in ipsilateral limbs: abolished | Effect on PPT in contralateral paws: No changes were observed
